Experimental data taken from US10689429B2, “Double-acylated GLP-1 compounds” (Novo Nordisk A/S, priority 2014, dated 2020).
Where two headings read alike, the source gives them in different places. *1 amine or outer side, *2 acyl side, *3 side chain or, on linkers, in order; H or OH if unused. Where no end group is shown, it is not given here. Side-chain parts run from the residue outwards. [ ]: non-standard residue; d: D form. The star is where a group is joined. Undecanoyl(11-OPh(4-COOH)) = O=C(O)c1ccc(OCCCCCCCCCCC(=O)*)cc1; Decanoyl(10-O(3-COOH-Ph)) = O=C(O)c1cccc(OCCCCCCCCCC(=O)*)c1; γGlu = O=C(O)[C@H](CCC(=O)[*:2])N[*:1]; AEEA = NCCOCCOCC(=O)O; Aib = CC(C)(N)C(=O)O

Tests used:
human GLP-1 receptor [1] = biological target: T1, human GLP-1 receptor (Homo sapiens, UniProt P43220); assay: In vitro potency, CRE luciferase reporter gene assay in BHK cells expressing the human GLP-1 receptor; format: cell-based; details: average of duplicates;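 also: firefly luciferase luminescence read after 3 h incubation at 37 °C, compounds tested in an eight-point series from 0.01 pM to 100 nM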
T1 construct: expressed in transfected cells; host or cells: membranes from BHK cells, parent line BHKTS13, clone FCW467-12A
T1 sequence (P43220 24-463): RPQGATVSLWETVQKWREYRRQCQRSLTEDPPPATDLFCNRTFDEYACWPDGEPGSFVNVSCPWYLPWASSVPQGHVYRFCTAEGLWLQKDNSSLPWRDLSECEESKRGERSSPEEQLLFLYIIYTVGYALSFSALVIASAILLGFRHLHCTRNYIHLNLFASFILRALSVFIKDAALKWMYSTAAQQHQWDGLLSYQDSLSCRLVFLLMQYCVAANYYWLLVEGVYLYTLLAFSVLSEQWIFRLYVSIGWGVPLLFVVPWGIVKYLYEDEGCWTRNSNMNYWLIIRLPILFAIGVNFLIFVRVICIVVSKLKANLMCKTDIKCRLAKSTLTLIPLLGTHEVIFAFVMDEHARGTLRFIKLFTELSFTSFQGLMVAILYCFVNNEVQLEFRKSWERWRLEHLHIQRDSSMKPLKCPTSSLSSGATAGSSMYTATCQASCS
Description: The in vitro potency is the measure of human GLP-1 receptor activation in a whole cell assay.
In vitro potency was determined by measuring the response of the human GLP-1 receptor in a reporter gene assay. The assay was performed in a stably transfected BHK cell line that expresses the human GLP-1 receptor and contains the DNA for the cAMP response element (CRE) coupled to a promoter and the gene for firefly luciferase (CRE luciferase). When the human GLP-1 receptor is activated it results in the production of cAMP, which in turn results in the luciferase protein being expressed. When assay incubation is completed the luciferase substrate (luciferin) is added and the enzyme converts luciferin to oxyluciferin to produce bioluminescence. The luminescence is measured as the readout for the assay.
An increase of the in vitro potency, EC50 value, in the presence of serum albumin would indicate an affinity to serum albumin and represents a method to predict a protracted pharmacokinetic profile of the test substance in animal models.
The cells were cultured at 5% CO2 in Cell Culture Medium. They were aliquoted and stored in liquid nitrogen. Before each assay an aliquot is taken up and washed twice in PBS before being suspended at the desired concentration in the assay specific buffer. For 96-well plates the suspension was made to give a final concentration of 5×10^3 cells/well.
Assay Medium consisted of DMEM w/o phenol red, 10 mM Hepes and 1× Glutamax. The 1% Assay Buffer consisted of 2% ovalbumin, 0.2% Pluronic F-68 and 2% HSA in Assay Medium. The 0% Assay Buffer consisted of 2% ovalbumin and 0.2% Pluronic F-68 in Assay Medium.
1) Cell stocks were thawed in a 37° C. water bath.
2) Cells were washed three times in PBS.
3) The cells were counted and adjusted to 5×10^3 cells/50 μl (1×10^5 cells/ml) in Assay Medium. A 50 μl aliquot of cells was transferred to each well in the assay plate.
4) Stocks of the test compounds and reference compounds were diluted to a concentration of 0.2 pM in 0% Assay Buffer for the 0% HSA CRE luciferase assay and 1% Assay Buffer for the 1% HSA CRE luciferase assay. […] Compounds were tested at the following final concentrations: 1×10^−7 M, 1×10^−8 M; 1×10^−9 M, 1×10^−10 M, 1×10^−11 M, 1×10^−12 M, 1×10^−13 M, and 1×10^−14 M. 6) The assay plate was incubated for 3 h in a 5% CO2 incubator at 37° C. […] 8) A 100 μl aliquot of steadylite plus reagent was added to each well of the assay plate (reagent was light sensitive). 9) Each assay plate was covered with aluminum foil to protect it from light and shaken for 30 min at room temperature. 10) Each assay plate was read in a Packard TopCount NXT instrument. Calculations and Results
The data from the TopCount instrument were transferred to GraphPad Prism software. The software performs a non-linear regression (log(agonist) vs response).
A minimum of two replicates was measured for each sample on separate assay plates. The reported values are averages of the duplicates. For some examples more than one assay was run and in this case the data reported are the averages of the averaged duplicates.

[2] = Pharmacokinetic study in mini pigs after i.v. administration; format: in vivo; details: female, Göttingen, pig, plasma, iv, 2 nmol/kg; read-out: Minipig iv PK, t½ (converted)
Description: The purpose of this study is to determine the protraction in vivo of the GLP-1 derivatives after i.v. administration to mini pigs, i.e. the prolongation of their time in the body and thereby their time of action. This was done in pharmacokinetic (PK) studies, where the terminal half-life of the derivative in question was determined. By terminal half-life is generally meant the period of time it takes to halve a certain plasma concentration, measured after the initial distribution phase.
Female Göttingen mini pigs obtained from Ellegaard Göttingen Minipigs (Dalmose, Denmark) at approximately 5 months of age and weighing approximately 10 kg were used in the studies. The mini pigs were housed in pens with straw as bedding, four to six together in each pen and fed restrictedly once or twice daily with Altromin 9023 mini pig diet (Chr. Petersen A/S, DK-4100 Ringsted). The pigs were used for repeated pharmacokinetic studies with a suitable wash-out period between successive GLP-1 derivative dosings. An acclimatisation period of 1 week was allowed during which time the mini pigs were trained to be fixated on the back for blood sampling and in slings for i.v. dosing. All handling, dosing and blood sampling of the animals was performed by trained and skilled staff.
The GLP-1 derivatives were dissolved in 50 mM sodium phosphate, 70 mM sodium chloride, 0.05% tween 80, pH 7.4 to a concentration of approximately 20 nmol/ml. Intravenous injections (the volume corresponding to usually 2 nmol/kg, for example 0.1 ml/kg) of the compounds were given as intravenous injections via a Venflon inserted in an ear vein, while the animals were placed un-anaesthetised in a sling. The dose volume was 0.1 ml/kg, and blood was sampled at predefined time points for up till 13 days post dosing (samples were taken with a syringe from a jugular vein). Blood samples (for example 0.8 ml) were collected in EDTA buffer (8 mM) and then centrifuged at 4° C. and 2000 G for 10 minutes.
Individual plasma concentration-time profiles were analysed by a non-compartmental model in WinNonlin v. […] 6.2 or 6.3 (Pharsight Inc., Mountain View, Calif., USA), or other relevant software for PK analysis, and the resulting terminal half-lives determined.

[3] = Pharmacokinetic studies in Beagle dogs (i.v. and p.o.); format: in vivo; details: dog, plasma; for half-life: iv, 2 nmol/kg, read-out: Beagle dogs iv PK, t½ (converted)
Description: Pharmacokinetic (PK) studies in Beagle dogs were conducted in order to determine a) the protraction of the GLP-1 derivatives after i.v. administration, and b) the bioavailability of the GLP-1 derivatives after p.o. administration.
By protraction is meant the prolongation of the time in the body and thereby the time of action of the GLP-1 derivatives. This was done in pharmacokinetic (PK) studies, where the terminal half-life of the derivative in question was determined. By terminal half-life is generally meant the period of time it takes to halve a certain plasma concentration, measured after the initial distribution phase.
The dogs were housed in pens (12 hours light: 12 hours dark) with softwood based granules as bedding, two together in each pen and fed restrictedly once daily with […] ™ Struvite Management Diet (Dechra Veterinary Products, UK). Exercise was permitted daily, whenever possible. The dogs were used for repeated pharmacokinetic studies with a suitable wash-out period between successive GLP-1 derivative dosings. An acclimatisation period of 4 weeks was allowed during which time the dogs were trained. All handling, dosing and blood sampling of the animals was performed by trained and skilled staff. The dogs were fasted overnight before dosing and from 0 to 4 h after dosing, but had ad libitum access to water during the whole period.
The dogs were housed in social groups (12 hours light: 12 hours dark), and fed individually and restrictedly once daily with Royal Canin Medium Adult dog (Royal Canin Products, China Branch, or Brogaarden A/S, Denmark). Exercise and group social was permitted daily, whenever possible. The dogs were used for repeated pharmacokinetic studies with a suitable wash-out period between successive GLP-1 derivative dosings. An appropriate acclimatisation period was given prior to initiation of the first pharmacokinetic study. All handling, dosing and blood sampling of the animals was performed by trained and skilled staff. Before the studies the dogs were fasted overnight and from 0 to 4 h after dosing. […]

[4] = Pharmacodynamic (PD) study in pigs, effect on food intake; format: in vivo
Description: The purpose of this experiment is to investigate the effect of the GLP-1 derivatives on food intake in pigs. This was done in a pharmacodynamic (PD) study as described below, in which food intake was measured from 1 to 4 days after administration of a single dose of the GLP-1 derivative, as compared to a vehicle-treated control group.
Female Landrace Yorkshire Duroc (LYD) pigs or Large White hybrid, approximately 3 months of age, weighing approximately 30-35 kg were used (n=3-4 per group). The animals were housed in a group for approximately 1 week during acclimatisation to the animal facilities. During the experimental period the animals were placed in individual pens at least 2 days before dosing and during the entire experiment for measurement of individual food intake.
The animals were fed ad libitum with pig fodder (Svinefoder Danish Top or HRC Sow and Weaner Diet) at all times both during the acclimatisation and the experimental period. Food intake was monitored on line by logging the weight of fodder every 15 minutes using the Mpigwin system (Ellegaard Systems, Faaborg, Denmark). Alternatively fodder was offered in the morning each day, and availability for the full 24-hour period was ensured. Any uneaten fodder was removed and weighed (manually) on the following morning, and replaced with fresh fodder.
The GLP-1 derivatives were dissolved in a phosphate buffer (50 mM sodium phosphate, 70 mM sodium chloride, 0.05% tween 80, pH 7.4) at concentrations of approximately 120 nmol/ml corresponding to doses of 3 nmol/kg. The phosphate buffer served as vehicle.
On the last day of each study, 2 or 4 days after dosing, a blood sample for measurement of plasma exposure of the GLP-1 derivative was taken from the heart in anaesthetised animals.
Food intake was calculated in 24 h intervals (0-24 h, 24-48 h, 48-72 h and 72-96 h).

human GLP-1 receptor [5] = biological target: T2, human GLP-1 receptor (human, UniProt P43220)
Target sequence in this assay (P43220 24-463): as above

human GLP-1 receptor [6] = biological target: T2, human GLP-1 receptor; assay: displacement of [125I]-GLP-1-(7-36)NH2 from membranes with human GLP-1 receptor, SPA, high HSA (2.0%)
Description: (§1) Each derivative is added in a series of concentrations to isolated membranes containing the human GLP-1 receptor and displacement of the labelled ligand is monitored. The receptor binding is reported as the concentration at which half of the labelled ligand is displaced from the receptor, the $IC50$ value.
(§2) For the receptor binding assay in the presence of low HSA (0.001%) 50 μl of the assay buffer was added to each well of an assay plate. […] For the receptor binding assay in the presence of high HSA (2.0%) 50 μl of the 8% albumin stock was added to each well of an assay plate. […] Cell membrane aliquots were thawed and diluted to their working concentration. Fifty μl were added to each well in the assay plate. […] WGA SPA beads were suspended in assay buffer at 20 mg/ml. The suspension was diluted to 10 mg/ml in assay buffer just prior to addition to the assay plate. Fifty μl were added to each well in the assay plate. […] A 25 μl aliquot was reserved for measuring total counts/well. […] The assay plate was incubated for 2 h at 30° C. […] The assay plate was centrifuged for 10 min. […] The assay plate was read in a Packard TopCount NXT instrument.

human GLP-1 receptor [7] = biological target: T2, human GLP-1 receptor; assay: displacement of [125I]-GLP-1-(7-36)NH2 from membranes with human GLP-1 receptor, SPA, low HSA (0.001%)
Description: as §1, §2

[8] = EC50/pM (1% HSA), 1% HSA final assay concentration

## CC[C@H](C)[C@H](NC(=O)[C@H](Cc1ccccc1)NC(=O)[C@H](CCC(=O)O)NC(=O)[C@H](CCCNC(=N)N)NC(=O)[C@H](C)NC(=O)[C@H](C)NC(=O)[C@H](CCC(N)=O)NC(=O)[C@H](CCC(=O)O)NC(=O)[C@H](CCC(=O)O)NC(=O)[C@H](CC(C)C)NC(=O)[C@H](Cc1ccc(O)cc1)NC(=O)[C@H](CO)NC(=O)[C@H](CO)NC(=O)[C@@H](NC(=O)[C@H](CC(=O)O)NC(=O)[C@H](CO)NC(=O)[C@@H](NC(=O)[C@H](Cc1ccccc1)NC(=O)[C@@H](NC(=O)CNC(=O)[C@H](CCC(=O)O)NC(=O)C(C)(C)NC(=O)[C@@H](N)Cc1c[nH]cn1)[C@@H](C)O)[C@@H](C)O)C(C)C)C(=O)N[C@@H](C)C(=O)N[C@@H](Cc1c[nH]c2ccccc12)C(=O)N[C@@H](CC(C)C)C(=O)N[C@H](C(=O)N[C@@H](CCCNC(=N)N)C(=O)NCC(=O)N[C@@H](CCCCNC(=O)COCCOCCNC(=O)COCCOCCNC(=O)CC[C@H](NC(=O)CCCCCCCCCOc1cccc(C(=O)O)c1)C(=O)O)C(=O)N[C@@H](CCCCNC(=O)COCCOCCNC(=O)COCCOCCNC(=O)CC[C@H](NC(=O)CCCCCCCCCOc1cccc(C(=O)O)c1)C(=O)O)C(=O)O)C(C)C [Example 15, N{Epsilon-36}-[2-[2-[2-[[2-[2-[2-[[(4S)-4-carboxy-4-[10-(3-carboxyphenoxy)decanoylamino]butanoyl]amino]ethoxy]ethoxy]acetyl]amino]ethoxy]ethoxy]acetyl], N{Epsilon-37}-[2-[2-[2-[[2-[2-[2-[[(4S)-4-carboxy-4-[10-(3-carboxyphenoxy)decanoylamino]butanoyl]amino]ethoxy]ethoxy]acetyl]amino]ethoxy]ethoxy]acetyl]-[Aib8,Glu22,Arg26,Arg34,Lys36,Lys37]-GLP-1-(7-37)-peptide]
Human GLP-1 receptor [1]; EC50/pM (0% HSA), 0% HSA
  EC50: 6.1 pM
Human GLP-1 receptor [1]; [8]
  EC50: 44 pM
[2]
  half-life: 144 h
[3]
  half-life: 111 h

## CC[C@H](C)[C@H](NC(=O)[C@H](Cc1ccccc1)NC(=O)[C@H](CCC(=O)O)NC(=O)[C@H](CCCNC(=N)N)NC(=O)[C@H](C)NC(=O)[C@H](C)NC(=O)[C@H](CCC(N)=O)NC(=O)[C@H](CCC(=O)O)NC(=O)[C@H](CCC(=O)O)NC(=O)[C@H](CC(C)C)NC(=O)[C@H](Cc1ccc(O)cc1)NC(=O)[C@H](CO)NC(=O)[C@H](CO)NC(=O)[C@@H](NC(=O)[C@H](CC(=O)O)NC(=O)[C@H](CO)NC(=O)[C@@H](NC(=O)[C@H](Cc1ccccc1)NC(=O)[C@@H](NC(=O)CNC(=O)[C@H](CCC(=O)O)NC(=O)C(C)(C)NC(=O)[C@@H](N)Cc1c[nH]cn1)[C@@H](C)O)[C@@H](C)O)C(C)C)C(=O)N[C@@H](C)C(=O)N[C@@H](Cc1c[nH]c2ccccc12)C(=O)N[C@@H](CC(C)C)C(=O)N[C@H](C(=O)N[C@@H](CCCNC(=N)N)C(=O)NCC(=O)N[C@@H](CCCCNC(=O)COCCOCCNC(=O)COCCOCCNC(=O)COCCOCCNC(=O)COCCOCCNC(=O)CC[C@H](NC(=O)CCCCCCCCCCCCC(=O)O)C(=O)O)C(=O)N[C@@H](CCCCNC(=O)COCCOCCNC(=O)COCCOCCNC(=O)COCCOCCNC(=O)COCCOCCNC(=O)CC[C@H](NC(=O)CCCCCCCCCCCCC(=O)O)C(=O)O)C(=O)O)C(C)C [Example 20]
Human GLP-1 receptor [1]; 0% HSA, read-out: EC50/pM (0% HSA)
  EC50: 2.7 pM
Human GLP-1 receptor [1]; [8]
  EC50: 5.8 pM
[4]; single s.c. dose 3 nmol/kg, 0-24 h, NS = not significantly different from vehicle
  PD in pig, food intake (% of vehicle) for hours 0-24: 10 % of vehicle
[4]; single s.c. dose 3 nmol/kg, 24-48 h, NS = not significantly different from vehicle
  PD in pig, food intake (% of vehicle) for hours 24-48: 18 % of vehicle
[4]; single s.c. dose 3 nmol/kg, 48-72 h, NS = not significantly different from vehicle
  PD in pig, food intake (% of vehicle) for hours 48-72: 65 % of vehicle
[4]; single s.c. dose 3 nmol/kg, 72-96 h, NS = not significantly different from vehicle
  PD in pig, food intake (% of vehicle) for hours 72-96: 81^NS % of vehicle
[4]; single s.c. injection in pigs
  reduction in food intake (in words): largest reduction in food intake

## CC[C@H](C)[C@H](NC(=O)[C@H](Cc1ccccc1)NC(=O)[C@H](CCC(=O)O)NC(=O)[C@H](CCCNC(=N)N)NC(=O)[C@H](C)NC(=O)[C@H](C)NC(=O)[C@H](CCC(N)=O)NC(=O)[C@H](CCC(=O)O)NC(=O)[C@H](CCC(=O)O)NC(=O)[C@H](CC(C)C)NC(=O)[C@H](Cc1ccc(O)cc1)NC(=O)[C@H](CO)NC(=O)[C@H](CO)NC(=O)[C@@H](NC(=O)[C@H](CC(=O)O)NC(=O)[C@H](CO)NC(=O)[C@@H](NC(=O)[C@H](Cc1ccccc1)NC(=O)[C@@H](NC(=O)CNC(=O)[C@H](CCC(=O)O)NC(=O)C(C)(C)NC(=O)[C@@H](N)Cc1c[nH]cn1)[C@@H](C)O)[C@@H](C)O)C(C)C)C(=O)N[C@@H](C)C(=O)N[C@@H](Cc1c[nH]c2ccccc12)C(=O)N[C@@H](CC(C)C)C(=O)N[C@H](C(=O)N[C@@H](CCCNC(=N)N)C(=O)NCC(=O)N[C@@H](CCCCNC(=O)COCCOCCNC(=O)COCCOCCNC(=O)CC[C@H](NC(=O)CCCCCCCCCCOc1ccc(C(=O)O)cc1)C(=O)O)C(=O)N[C@@H](CCCCNC(=O)COCCOCCNC(=O)COCCOCCNC(=O)CC[C@H](NC(=O)CCCCCCCCCCOc1ccc(C(=O)O)cc1)C(=O)O)C(=O)O)C(C)C [Example 1, N{Epsilon-36}-[2-[2-[2-[[2-[2-[2-[[(4S)-4-carboxy-4-[11-(4-carboxyphenoxy)undecanoylamino]butanoyl]amino]ethoxy]ethoxy]acetyl]amino]ethoxy]ethoxy]acetyl], N{Epsilon-37}-[2-[2-[2-[[2-[2-[2-[[(4S)-4-carboxy-4-[11-(4-carboxyphenoxy)undecanoylamino]butanoyl]amino]ethoxy]ethoxy]acetyl]amino]ethoxy]ethoxy]acetyl]-[Aib8,Glu22,Arg26,Arg34,Lys36,Lys37]-GLP-1-(7-37)-peptide]
Human GLP-1 receptor [1]; EC50/pM (0% HSA), 0% HSA
  EC50: 1.2 pM
Human GLP-1 receptor [1]; [8]
  EC50: 136 pM
[2]
  half-life: 103 h
[3]
  half-life: 85 h
[3]; po, absolute bioavailability (F), enteric coated sodium caprate tablet with approximately 10 mg derivative (Example 33)
  bioavailability: 2.4%

## HGEGTFTSDVSSYLEEQAAREFIAWLVRGK([AEEA-AEEA-γGlu-Undecanoyl(11-OPh(4-COOH))])K([AEEA-AEEA-γGlu-Undecanoyl(11-OPh(4-COOH))]) [GLP-1 derivative of Example 17]
Human GLP-1 receptor [5]
  EC50/pM (0% HSA): 14 pM
  EC50/pM (1% HSA): 199 pM
Human GLP-1 receptor [6]
  IC50: 536 nM
Human GLP-1 receptor [7]
  IC50: 0.9 nM

## H[Aib]EGTFTSDVSSYLEEQAAREFIAWLVRGKK (not fully specified (residues 30, 31)) [GLP-1 derivative of Example 1]
Human GLP-1 receptor [5]
  EC50/pM (0% HSA): 1.2 pM
  EC50/pM (1% HSA): 136 pM
Human GLP-1 receptor [6]
  IC50: 135 nM
Human GLP-1 receptor [7]
  IC50: 0.21 nM

## H[Aib]EGTFTSDVSSYLEEQAAREFIAWLVRGK([AEEA-AEEA-γGlu-Decanoyl(10-O(3-COOH-Ph))])K([AEEA-AEEA-γGlu-Decanoyl(10-O(3-COOH-Ph))]) [GLP-1 derivative of Example 15]
Human GLP-1 receptor [5]
  EC50/pM (0% HSA): 6.1 pM
  EC50/pM (1% HSA): 44 pM
Human GLP-1 receptor [6]
  IC50: 126 nM
Human GLP-1 receptor [7]
  IC50: 0.38 nM
